Here are results for five compounds from ChEMBL document CHEMBL1144189, “Novel and potent oxazolidinone antibacterials featuring 3-indolylglyoxamide substituents” (Bioorg Med Chem Lett, 2008).

≈ marks a conversion by molar mass, not a printed value. Some results are limits rather than exact numbers.

The first series has as its system Staphylococcus aureus. The experiment in a line: Antibacterial activity against methicillin-susceptible Staphylococcus aureus DRCC 035. The format is functional.
Conditions: not given
For the compound `CC(=O)NC[C@H]1CN(c2ccc(N3CCN(C(=O)C(=O)c4c[nH]c5ccc(Br)cc45)CC3)c(F)c2)C(=O)O1`, the MIC was 1 µg/mL (≈ 1.71 µM).

Regarding `O=C(C(=O)N1CCN(c2ccc(N3C[C@H](COc4ccon4)OC3=O)cc2F)CC1)c1c[nH]c2ccc(Br)cc12`, the MIC is above 32 µg/mL.

In the case of `O=C(C(=O)N1CCN(c2ccc(N3C[C@H](CNC(=O)C(F)F)OC3=O)cc2F)CC1)c1c[nH]c2ccc(Br)cc12`, the MIC was 2 µg/mL (≈ 3.21 µM).

Compound `CC(=O)NC[C@H]1CN(c2ccc(N3CCN(C(=O)C(=O)c4c[nH]c5ccccc45)CC3)c(F)c2)C(=O)O1` yielded an MIC of 1 µg/mL (≈ 1.97 µM).

The next series concerns Staphylococcus aureus. The experiment in a line: Antibacterial activity against methicillin-resistant Staphylococcus aureus DRCC 019. It counts as functional.
Conditions: not given
Consider `CC(=O)NC[C@H]1CN(c2ccc(N3CCN(C(=O)C(=O)c4c[nH]c5ccc(Br)cc45)CC3)c(F)c2)C(=O)O1`, for which the MIC stood at 0.5 µg/mL (≈ 0.853 µM).

`O=C(C(=O)N1CCN(c2ccc(N3C[C@H](COc4ccon4)OC3=O)cc2F)CC1)c1c[nH]c2ccc(Br)cc12`: the MIC was found to be 32 µg/mL (≈ 52.3 µM).

`CC(=O)NC[C@H]1CN(c2ccc(N3CCOCC3)c(F)c2)C(=O)O1` [LINEZOLID] had an MIC of 1 µg/mL (≈ 2.96 µM).

`O=C(C(=O)N1CCN(c2ccc(N3C[C@H](CNC(=O)C(F)F)OC3=O)cc2F)CC1)c1c[nH]c2ccc(Br)cc12` yielded an MIC of 1 µg/mL (≈ 1.61 µM).

`CC(=O)NC[C@H]1CN(c2ccc(N3CCN(C(=O)C(=O)c4c[nH]c5ccccc45)CC3)c(F)c2)C(=O)O1` showed an MIC of 1 µg/mL (≈ 1.97 µM).

A further series relates to Staphylococcus aureus. The experiment in a line: Antibacterial activity against linezolid-resistant Staphylococcus aureus DRCC 564.
Conditions: not given
It counts as functional.
As to `CC(=O)NC[C@H]1CN(c2ccc(N3CCN(C(=O)C(=O)c4c[nH]c5ccc(Br)cc45)CC3)c(F)c2)C(=O)O1`, the MIC came out at 8 µg/mL (≈ 13.6 µM).

As to `O=C(C(=O)N1CCN(c2ccc(N3C[C@H](COc4ccon4)OC3=O)cc2F)CC1)c1c[nH]c2ccc(Br)cc12`, the MIC is 32 µg/mL (≈ 52.3 µM).

Take `CC(=O)NC[C@H]1CN(c2ccc(N3CCOCC3)c(F)c2)C(=O)O1` [LINEZOLID]: the MIC amounted to 32 µg/mL (≈ 94.9 µM).

Take `O=C(C(=O)N1CCN(c2ccc(N3C[C@H](CNC(=O)C(F)F)OC3=O)cc2F)CC1)c1c[nH]c2ccc(Br)cc12`: the MIC was 4 µg/mL (≈ 6.43 µM).

For another series, the system named is Enterococcus faecalis. The experiment in a line: Antibacterial activity against vancomycin-susceptible Enterococcus faecalis DRCC 034.
Conditions: not given
The format is functional.
`CC(=O)NC[C@H]1CN(c2ccc(N3CCN(C(=O)C(=O)c4c[nH]c5ccc(Br)cc45)CC3)c(F)c2)C(=O)O1` came in with an MIC of 1 µg/mL (≈ 1.71 µM).

In turn, `O=C(C(=O)N1CCN(c2ccc(N3C[C@H](COc4ccon4)OC3=O)cc2F)CC1)c1c[nH]c2ccc(Br)cc12` yielded an MIC of 32 µg/mL (≈ 52.3 µM).

Regarding `O=C(C(=O)N1CCN(c2ccc(N3C[C@H](CNC(=O)C(F)F)OC3=O)cc2F)CC1)c1c[nH]c2ccc(Br)cc12`, the MIC turned out to be 1 µg/mL (≈ 1.61 µM).

The compound `CC(=O)NC[C@H]1CN(c2ccc(N3CCN(C(=O)C(=O)c4c[nH]c5ccccc45)CC3)c(F)c2)C(=O)O1` returned an MIC of 1 µg/mL (≈ 1.97 µM).

The test system of the next series is Enterococcus faecalis. As to the kind of experiment: Antibacterial activity against vancomycin-resistant Enterococcus faecalis DRCC 153. It counts as functional.
Conditions: not given
For `CC(=O)NC[C@H]1CN(c2ccc(N3CCN(C(=O)C(=O)c4c[nH]c5ccc(Br)cc45)CC3)c(F)c2)C(=O)O1`, the MIC came out at 0.5 µg/mL (≈ 0.853 µM).

For the compound `O=C(C(=O)N1CCN(c2ccc(N3C[C@H](COc4ccon4)OC3=O)cc2F)CC1)c1c[nH]c2ccc(Br)cc12`, the MIC came to 32 µg/mL (≈ 52.3 µM).

`O=C(C(=O)N1CCN(c2ccc(N3C[C@H](CNC(=O)C(F)F)OC3=O)cc2F)CC1)c1c[nH]c2ccc(Br)cc12`: the MIC is 0.25 µg/mL (≈ 0.402 µM).

`CC(=O)NC[C@H]1CN(c2ccc(N3CCN(C(=O)C(=O)c4c[nH]c5ccccc45)CC3)c(F)c2)C(=O)O1` gave an MIC of 1 µg/mL (≈ 1.97 µM).

In another series the test system is Enterococcus faecium. The experiment in a line: Antibacterial activity against vancomycin-resistant Enterococcus faecium DRCC 154.
Conditions: not given
The format is functional.
`CC(=O)NC[C@H]1CN(c2ccc(N3CCN(C(=O)C(=O)c4c[nH]c5ccc(Br)cc45)CC3)c(F)c2)C(=O)O1` gave an MIC of 1 µg/mL (≈ 1.71 µM).

Compound `O=C(C(=O)N1CCN(c2ccc(N3C[C@H](COc4ccon4)OC3=O)cc2F)CC1)c1c[nH]c2ccc(Br)cc12` showed an MIC above 32 µg/mL.

Compound `CC(=O)NC[C@H]1CN(c2ccc(N3CCOCC3)c(F)c2)C(=O)O1` [LINEZOLID] gave an MIC of 2 µg/mL (≈ 5.93 µM).

For `O=C(C(=O)N1CCN(c2ccc(N3C[C@H](CNC(=O)C(F)F)OC3=O)cc2F)CC1)c1c[nH]c2ccc(Br)cc12`, the MIC came out at 0.5 µg/mL (≈ 0.803 µM).

In the case of `CC(=O)NC[C@H]1CN(c2ccc(N3CCN(C(=O)C(=O)c4c[nH]c5ccccc45)CC3)c(F)c2)C(=O)O1`, the MIC was 1 µg/mL (≈ 1.97 µM).

A further series concerns Enterococcus faecalis. As to the kind of experiment: Antibacterial activity against linezolid-resistant Enterococcus faecalis DRCC 632. It counts as functional.
Conditions: not given
In turn, `CC(=O)NC[C@H]1CN(c2ccc(N3CCN(C(=O)C(=O)c4c[nH]c5ccc(Br)cc45)CC3)c(F)c2)C(=O)O1` showed an MIC of 8 µg/mL (≈ 13.6 µM).

Regarding `O=C(C(=O)N1CCN(c2ccc(N3C[C@H](COc4ccon4)OC3=O)cc2F)CC1)c1c[nH]c2ccc(Br)cc12`, the MIC came out at 32 µg/mL (≈ 52.3 µM).

Take `CC(=O)NC[C@H]1CN(c2ccc(N3CCOCC3)c(F)c2)C(=O)O1` [LINEZOLID]: the MIC turned out to be 32 µg/mL (≈ 94.9 µM).

Consider `O=C(C(=O)N1CCN(c2ccc(N3C[C@H](CNC(=O)C(F)F)OC3=O)cc2F)CC1)c1c[nH]c2ccc(Br)cc12`, for which the MIC stood at 4 µg/mL (≈ 6.43 µM).

The next series concerns Moraxella catarrhalis. As to the kind of experiment: Antibacterial activity against beta-lactamase deficient Moraxella catarrhalis DRCC 300. The format is functional.
Conditions: not given
In turn, `CC(=O)NC[C@H]1CN(c2ccc(N3CCN(C(=O)C(=O)c4c[nH]c5ccc(Br)cc45)CC3)c(F)c2)C(=O)O1` gave an MIC of 2 µg/mL (≈ 3.41 µM).

`O=C(C(=O)N1CCN(c2ccc(N3C[C@H](COc4ccon4)OC3=O)cc2F)CC1)c1c[nH]c2ccc(Br)cc12` displayed an MIC of 32 µg/mL (≈ 52.3 µM).

With `CC(=O)NC[C@H]1CN(c2ccc(N3CCOCC3)c(F)c2)C(=O)O1` [LINEZOLID], the MIC stood at 4 µg/mL (≈ 11.9 µM).

`O=C(C(=O)N1CCN(c2ccc(N3C[C@H](CNC(=O)C(F)F)OC3=O)cc2F)CC1)c1c[nH]c2ccc(Br)cc12` yielded an MIC of 2 µg/mL (≈ 3.21 µM).

For the next series, the system named is Haemophilus influenzae. The experiment in a line: Antibacterial activity against beta-lactamase deficient Haemophilus influenzae DRCC 433. The format is functional.
Conditions: not given
For `CC(=O)NC[C@H]1CN(c2ccc(N3CCN(C(=O)C(=O)c4c[nH]c5ccc(Br)cc45)CC3)c(F)c2)C(=O)O1`, the MIC was above 32 µg/mL.

`O=C(C(=O)N1CCN(c2ccc(N3C[C@H](COc4ccon4)OC3=O)cc2F)CC1)c1c[nH]c2ccc(Br)cc12` came in with an MIC above 32 µg/mL.

`CC(=O)NC[C@H]1CN(c2ccc(N3CCOCC3)c(F)c2)C(=O)O1` [LINEZOLID] came in with an MIC of 8 µg/mL (≈ 23.7 µM).

Turning to `O=C(C(=O)N1CCN(c2ccc(N3C[C@H](CNC(=O)C(F)F)OC3=O)cc2F)CC1)c1c[nH]c2ccc(Br)cc12`, the MIC is above 32 µg/mL.

For `CC(=O)NC[C@H]1CN(c2ccc(N3CCN(C(=O)C(=O)c4c[nH]c5ccccc45)CC3)c(F)c2)C(=O)O1`, the MIC was found to be 16 µg/mL (≈ 31.5 µM).

Another series deals with Staphylococcus aureus. As to the kind of experiment: Antibacterial activity against Staphylococcus aureus DRCC 035 infected mouse systemic infection model administered orally for 1 day at 1 and 5 hrs post-infection and measured daily for 5 days. It counts as functional. The conditions noted are these: po.
Compound `CC(=O)NC[C@H]1CN(c2ccc(N3CCN(C(=O)C(=O)c4c[nH]c5ccc(Br)cc45)CC3)c(F)c2)C(=O)O1` returned an ED50 of 27 mg/kg.

Consider `CC(=O)NC[C@H]1CN(c2ccc(N3CCOCC3)c(F)c2)C(=O)O1` [LINEZOLID], for which the 50% effect level (ED50) was put at a dose of 5.3 mg/kg.

For `O=C(C(=O)N1CCN(c2ccc(N3C[C@H](CNC(=O)C(F)F)OC3=O)cc2F)CC1)c1c[nH]c2ccc(Br)cc12`, the ED50 is above 30 mg/kg.

The compound `CC(=O)NC[C@H]1CN(c2ccc(N3CCN(C(=O)C(=O)c4c[nH]c5ccccc45)CC3)c(F)c2)C(=O)O1` gave an ED50 of 19.4 mg/kg.

Tested on in a further series: not listed separately
As to the kind of experiment: AUC (0 to t) in Swiss albino mouse at 10 mg/kg, po. Details: dose 10 mg/kg, route oral. It counts as ADME, organism-based. The following applies: plasma.
With `CC(=O)NC[C@H]1CN(c2ccc(N3CCN(C(=O)C(=O)c4c[nH]c5ccc(Br)cc45)CC3)c(F)c2)C(=O)O1`, the AUC(0-t) was found to be 2250 ng·h/mL.

Consider `CC(=O)NC[C@H]1CN(c2ccc(N3CCOCC3)c(F)c2)C(=O)O1` [LINEZOLID], for which the AUC(0-t) was 11000 ng·h/mL.

Tested on in a further series: not listed separately
As to the kind of experiment: Tmax in Swiss albino mouse at 10 mg/kg, po. It counts as ADME, organism-based. Details: dose 10 mg/kg, route oral. The conditions noted are these: in vivo.
With `CC(=O)NC[C@H]1CN(c2ccc(N3CCN(C(=O)C(=O)c4c[nH]c5ccc(Br)cc45)CC3)c(F)c2)C(=O)O1`, the Tmax is 2 h.

With `CC(=O)NC[C@H]1CN(c2ccc(N3CCOCC3)c(F)c2)C(=O)O1` [LINEZOLID], the Tmax amounted to 0.25 h.

Tested on in the next series: not listed separately
As to the kind of experiment: Cmax in Swiss albino mouse at 10 mg/kg, po. Details: dose 10 mg/kg, route oral. The following applies: in vivo. It counts as ADME, organism-based.
In turn, `CC(=O)NC[C@H]1CN(c2ccc(N3CCN(C(=O)C(=O)c4c[nH]c5ccc(Br)cc45)CC3)c(F)c2)C(=O)O1` gave a Cmax of 680 ng/mL.

Compound `CC(=O)NC[C@H]1CN(c2ccc(N3CCOCC3)c(F)c2)C(=O)O1` [LINEZOLID] showed a Cmax of 6310 ng/mL. This Cmax is about 9.3-fold higher than that of the compound before.

Tested on in the next series: not listed separately
As to the kind of experiment: Half life in Swiss albino mouse at 10 mg/kg, po. It counts as ADME, organism-based. On the set-up: dose 10 mg/kg, route oral. The conditions noted are these: in vivo.
`CC(=O)NC[C@H]1CN(c2ccc(N3CCN(C(=O)C(=O)c4c[nH]c5ccc(Br)cc45)CC3)c(F)c2)C(=O)O1` showed a half-life of 2.17 h.

As for `CC(=O)NC[C@H]1CN(c2ccc(N3CCOCC3)c(F)c2)C(=O)O1` [LINEZOLID], the half-life was 1.37 h.

Tested on in the next series: not listed separately
As to the kind of experiment: Drug elimination in Swiss albino mouse at 10 mg/kg, po. It counts as ADME, organism-based. Details: dose 10 mg/kg, route oral. The conditions noted are these: in vivo.
Take `CC(=O)NC[C@H]1CN(c2ccc(N3CCN(C(=O)C(=O)c4c[nH]c5ccc(Br)cc45)CC3)c(F)c2)C(=O)O1`: the k el is 8.89e-05 s⁻¹.

In the case of `CC(=O)NC[C@H]1CN(c2ccc(N3CCOCC3)c(F)c2)C(=O)O1` [LINEZOLID], the k el was 0.000142 s⁻¹.

By ED50 is commonly meant the dose at which the effect has come halfway, by size or by number of responders. A low value points to an effect at a small dose. For orientation: AUC(0-t) means exposure summed from dosing to a finite time, without extrapolation to infinity. A lower AUC(0-t) goes with less exposure. The Tmax is the time from dosing to the highest level. As a reminder, the Cmax is the highest concentration seen after dosing. The term half-life denotes how long it takes for the measured level to halve. A higher half-life goes with slow loss.
